Experimental data taken from USRE37999E1, “20-(B)-20,25-dihydroperoxy-3β-hydroxycholest-5-ene and 20-(S)-20,25-dihydroperoxy-3β-hydroxycholest-5-ene” (Iowa State University Research Foundation, Inc., priority 1988, dated 2003).
Several values for one entry are separate records, joined by “and”; a condition that tells them apart may be missing. Identical values can stand only once.

Tests used:
[1] = system: mouse peritoneal macrophages; assay: Esterification of cholesterol in mouse peritoneal macrophages (3H-oleate incorporation into cholesteryl ester); type: cell-based; conditions: 15 min preincubation
Description: The effects of cholesterol hydroperoxides on the esterification of cholesterol in mouse peritoneal macrophages was tested as follows:
Monolayers of mouse peritoneal macrophages were pretreated with various concentration of ⟦deleted by reissue: 20-(S)-hydroperoxy-cholest-5-ene-3β,25-diol hydroxycholesterol (A) or 20-(R)-hydroperoxycholest-5-ene-3β,25 diol (B) ⟧ 20-(S)-20,25-dihydroperoxy-3β-hydroxycholest-5-ene-(A) or 20-(R)-20,25-dihydroperoxy-3β-hydroxycholest-5-ene (B) at 37° C. After 15 min preincubation, medium M199 providing 2.5% fetal calf serum, acetyl-LDL (25 μg protein/ml) and ^3H-oleate (0.25 μCi/ml) was added to the culture dishes. After 6 hr of incubation with 5% CO2 at 37° C. the cellular lipids were extracted. This layer chromatography was used to separate cholesteryl ester from other lipid classes before the radioactivity was determined. The activities reported have been corrected for losses during chromatography and elution of the thin-layer plates.

[2] = system: mouse peritoneal macrophages; assay: Time course of incorporation of 3H-oleate into cholesterol esters by mouse peritoneal macrophages; type: cell-based; conditions: for inhibition of 3H-oleate incorporation into cholesterol esters (in words): 50 μM compound A or 25 μM compound B
Description: In a further experiment, the time course of incorporation of ^3H-oleate into the same cholesterol esters by mouse peritoneal macrophages was studied. Mouse peritoneal macrophages were gorwn in M199 medium containing 2.5% fetal calf serum and acetyl-LDL (25 μg protein/ml) for 18 hr at 37° C. The medium was then replaced by M199 containing 2.5% fetal calf serum; ^3H-oleate with 50 μM compound A or 25 μM compound B or no hydroperoxide. At the time intervals indicated, the medium was aspirated and the cellular lipid was extracted and analyzed by thin-layer chromatography.

[3] = system: acyl-Coenzyme-A:cholesterol acyltransferase (ACAT); assay: Inhibition of ACAT in mouse liver microsomes (14C-oleoyl-Coenzyme A); type: biochemical; conditions: 15 min pretreatment
Description: In another experiment, the inhibition of ⟦deleted by reissue: acrylCoenzyme-A:cholesterol ⟧ acyl-Coenzyme-A:cholesterol acyltransferase (ACAT) by cholesterol hydroperoxides, compounds A and B was used. Mouse liver microsomes (140 μg protein/assay) were treated with various concentrations of compounds A and B for 15 min prior to starting the assay by the addition of ^14C-oleoyl-Coenzyme A (41 μM, 0.068 μCi/assay). The reaction was carried on at 37° C. for exactly 5 min. then terminated by the addition of chloroform and methanol. The cellular lipids were extracted and separated by thin-layer chromatography.

calmodulin = calmodulin (Homo sapiens, UniProt P0DP23); assay: Inhibition of calmodulin activity (method of Leung et al. 1984); type: biochemical
Description: The inhibition of calmodulin activity by A and B were measured using the method described by Leung et al. (1984) and the results are shown in Table 1.
In still another experiment, inhibition of calmodulin by the same cholesterol hydroperoxides was tested. The calmodulin inhibition was assayed as described by Leung et al. (J. Biol. Chem., 259:2742-2747, 1984).

[4] = system: rabbits fed an atherogenic diet; conditions: cited from earlier work
[5] = 2.5 μM hydroperoxide, 6 hr incubation with acetyl-LDL and 3H-oleate
[6] = 5 μM hydroperoxide, 6 hr incubation
[7] = 10 μM hydroperoxide, 6 hr incubation
[8] = 25 μM hydroperoxide, 6 hr incubation
[9] = 50 μM hydroperoxide, 6 hr incubation
[10] = 75 μM hydroperoxide, 6 hr incubation
[11] = 100 μM hydroperoxide, 6 hr incubation
[12] = 2.5 μM, 5 min reaction at 37° C
[13] = 0.01 μg compound preincubated with 0.3 units calmodulin, assay 30 C, 30 min
[14] = 0.1 μg compound preincubated with 0.3 units calmodulin, assay 30 C, 30 min
[15] = 1 μg compound preincubated with 0.3 units calmodulin, assay 30 C, 30 min
[16] = Table 1, Control + EDTA, amount not given
[17] = Table 9, EGTA, amount not given

| SMILES | Counts per min 3H incorporated into cholesteryl ester [1, 5] | Counts per min 3H incorporated into cholesteryl ester [1, 6] [Counts per min] | Counts per min 3H incorporated into cholesteryl ester [1, 7] | Counts per min 3H incorporated into cholesteryl ester [1, 8] | Counts per min 3H incorporated into cholesteryl ester [1, 9] [Counts per min] | Counts per min 3H incorporated into cholesteryl ester [1, 10] | Counts per min 3H incorporated into cholesteryl ester [1, 11] | inhibition of 3H-oleate incorporation into cholesterol esters (in words) ([2]; 5 min) | Counts per minute in cholesterol esters [3, 12] | Counts per minute in cholesterol esters ([3]; 5 μM, 5 min reaction) | Counts per minute in cholesterol esters ([3]; 10 μM, 5 min reaction) | Counts per minute in cholesterol esters ([3]; 16.7 μM, 5 min reaction) | Counts per minute in cholesterol esters ([3]; 25 μM, 5 min reaction) | Counts per minute in cholesterol esters ([3]; 33.3 μM, 5 min reaction) | Counts per minute in cholesterol esters ([3]; 50 μM, 5 min reaction) | Counts per minute in cholesterol esters ([3]; 100 μM, 5 min reaction) | % inhibition (calmodulin; [13]) [%] | nmole P produced^i (calmodulin; [13]) [nmol] | % inhibition (calmodulin; [14]) [%] | nmole P produced^i (calmodulin; [14]) [nmol] | further results |
| --- | --- | --- | --- | --- | --- | --- | --- | --- | --- | --- | --- | --- | --- | --- | --- | --- | --- | --- | --- | --- | --- |
| CC(C)(CCC[C@@](C)(OO)[C@H]1CC[C@H]2[C@@H]3CC=C4C[C@@H](O)CC[C@]4(C)[C@H]3CC[C@@]21C)OO [Compound B, 20-(R)-20,25-dihydroperoxy-3β-hydroxycholest-5-ene] | 41574 Counts per min and 34918 Counts per min | 32751 | 25140 Counts per min and 16252 Counts per min | 7752 Counts per min and 6232 Counts per min | 4073 | 3177 Counts per min and 3385 Counts per min | 4427 Counts per min and 2401 Counts per min | apparent at the shortest time samples | 4557 Counts per minute and 3518 Counts per minute | 1786 Counts per minute and 2336 Counts per minute | 2499 Counts per minute and 1896 Counts per minute | 920 Counts per minute and 964 Counts per minute | 500 Counts per minute and 720 Counts per minute | 429 Counts per minute and 563 Counts per minute | 315 Counts per minute and 294 Counts per minute | 131 Counts per minute and 244 Counts per minute | 4 | 26.9 | 61 | 17.3 | Counts per minute in cholesterol ester ([2]; 25 μM compound B, 5 min): 2218 Counts per minute and 1256 Counts per minute; Counts per minute in cholesterol ester ([2]; 25 μM compound B, 10 min): 2560 Counts per minute and 2019 Counts per minute; Counts per minute in cholesterol ester ([2]; 25 μM compound B, 20 min): 3245 Counts per minute and 4788 Counts per minute; Counts per minute in cholesterol ester ([2]; 25 μM compound B, 30 min): 3202 Counts per minute and 2943 Counts per minute; Counts per minute in cholesterol ester ([2]; 25 μM compound B, 60 min): 5054 Counts per minute and 7341 Counts per minute; Counts per minute in cholesterol ester ([2]; 25 μM compound B, 120 min): 7534 Counts per minute and 9160 Counts per minute; Counts per minute in cholesterol ester ([2]; 25 μM compound B, 240 min): 18532 Counts per minute and 15819 Counts per minute; % inhibition (calmodulin; [15]): 81%; nmole P produced^i (calmodulin; [15]): 13.8 nmol; % inhibition (calmodulin; Table 9, 0.001 μg): 4%; nmoles phosphate produced (calmodulin; Table 9, 0.001 μg): 26.9 nmol; % inhibition (calmodulin; Table 9, 0.1 μg): 61%; nmoles phosphate produced (calmodulin; Table 9, 0.1 μg): 17.3 nmol; % inhibition (calmodulin; Table 9, 1 μg): 81%; nmoles phosphate produced (calmodulin; Table 9, 1 μg): 13.8 nmol |
| O=C(O)CN(CCN(CC(=O)O)CC(=O)O)CC(=O)O [EDTA, reference compound] |  |  |  |  |  |  |  |  |  |  |  |  |  |  |  |  |  |  |  |  | % inhibition (calmodulin; [16]): 100%; nmole P produced^i (calmodulin; [16]): 10.7 nmol |
| CC(C)(CCC[C@](C)(OO)[C@H]1CC[C@H]2[C@@H]3CC=C4C[C@@H](O)CC[C@]4(C)[C@H]3CC[C@@]21C)OO [Compound A, 20-(S)-20,25-dihydroperoxy-3β-hydroxycholest-5-ene] | 55816 Counts per min and 47673 Counts per min | 59136 | 33700 Counts per min and 29618 Counts per min | 14510 Counts per min and 17621 Counts per min | 6059 | 5074 Counts per min and 5047 Counts per min | 2830 Counts per min and 3970 Counts per min | apparent at the shortest time samples | 4702 Counts per minute and 4651 Counts per minute | 4109 Counts per minute and 3420 Counts per minute | 3033 Counts per minute and 5422 Counts per minute | 1643 Counts per minute and 1206 Counts per minute | 1121 Counts per minute and 652 Counts per minute | 841 Counts per minute and 1141 Counts per minute | 632 Counts per minute and 573 Counts per minute | 304 Counts per minute and 297 Counts per minute | 28 | 22.9 | 68 | 16.1 | Counts per minute in cholesterol ester ([2]; 50 μM compound A, 5 min): 2627 Counts per minute and 1994 Counts per minute; Counts per minute in cholesterol ester ([2]; 50 μM compound A, 10 min): 2462 Counts per minute and 3092 Counts per minute; Counts per minute in cholesterol ester ([2]; 50 μM compound A, 20 min): 5223 Counts per minute and 6049 Counts per minute; Counts per minute in cholesterol ester ([2]; 50 μM compound A, 30 min): 4007 Counts per minute and 2937 Counts per minute; Counts per minute in cholesterol ester ([2]; 50 μM compound A, 60 min): 4088 Counts per minute and 5295 Counts per minute; Counts per minute in cholesterol ester ([2]; 50 μM compound A, 120 min): 7269 Counts per minute and 10036 Counts per minute; Counts per minute in cholesterol ester ([2]; 50 μM compound A, 240 min): 19627 Counts per minute and 17564 Counts per minute; Counts per minute in cholesterol esters ([3]; 20 μM, 5 min reaction): 1652 Counts per minute and 1708 Counts per minute; % inhibition (calmodulin; [15]): 92%; nmole P produced^i (calmodulin; [15]): 12.1 nmol; % inhibition (calmodulin; Table 9, 0.01 μg): 28%; nmoles phosphate produced (calmodulin; Table 9, 0.01 μg): 22.9 nmol; % inhibition (calmodulin; Table 9, 0.1 μg): 68%; nmoles phosphate produced (calmodulin; Table 9, 0.1 μg): 16.1 nmol; % inhibition (calmodulin; Table 9, 1 μg): 92%; nmoles phosphate produced (calmodulin; Table 9, 1 μg): 12.1 nmol |
| CN(C)CCCN1c2ccccc2Sc2ccc(Cl)cc21 [chlorpromazine] |  |  |  |  |  |  |  |  |  |  |  |  |  |  |  |  |  |  |  |  | blood cholesterol [4]: without lowering of blood cholesterol; development of atherosclerotic lesions [4]: reduced the development of such lesions |
| O=C(O)CN(CCOCCOCCN(CC(=O)O)CC(=O)O)CC(=O)O [EGTA, reference compound] |  |  |  |  |  |  |  |  |  |  |  |  |  |  |  |  |  |  |  |  | % inhibition (calmodulin; [17]): 100%; nmoles phosphate produced (calmodulin; [17]): 10.7 nmol |
